System: Jurkat cells expressing TMEM16F-RFP
Assay: TIRF live imaging of TMEM16F-positive vesicle movement at the TCR activation site
Format: cell-based
Conditions: Jurkat cells pretreated with 1 μM inhibitor for 30 min, stimulated on αCD3-coated coverslips, TIRF microscopy (FIGS. 7D, 7E)
From the text: TMEM16F is recruited to the immunological synapse and resides in late endosomes. To elucidate the molecular mechanism how TMEM16F controls T cell activation, its cellular localization and function were tracked. To this end, T cells transduced with fluorescent TMEM16F were cocultured with antigen-presenting B cells. […] Of note, TMEM16F appeared mainly in intracellular structures instead of the plasma membrane (FIG. 7A). […] In order to test the mechanics of TMEM16F-positive vesicle movement, TIRF live imaging was performed while modulating the functions of the cytoskeleton. […] By contrast, treatment with nocodazole that disrupts the microtubule network reduced migration of TMEM16F vesicles, indicating the movement of TMEM16F was largely mediated by microtubules but not actin (FIGS. 7D and 7E).
TIRF Microscopy. Sample preparation for TIRF microscopy was performed as previously reported with minor modifications (Bunnell et al., 2003). […]
Image Processing. […] The number of TMEM16F-positive spots was plotted using Prism 6.0™ Quantifications of LBPA-positive vesicles, LAT-GFP, and SH2-ZAP70-mCherry were done similarly. Intensity of SH2-ZAP70-mCherry was determined using intensity vs. time plug-in. For the colocalization of TMEM16F and Rab proteins, fluorescence intensity for each protein was measured on a line manually drawn along TMEM16F-positive vesicles, and values (pixel) were plotted. […]

SMILES	recruitment of TMEM16F to the T cell activation site / migration of TMEM16F vesicles
Cc1ccc2c(c1)C(=O)C1(O)CCN(c3ccccc3)C1=N2 (centres unmarked) [blebbistatin]	did not alter
COC(=O)Nc1nc2ccc(C(=O)c3cccs3)cc2[nH]1 [nocodazole]	reduced

From patent US20190290728A1, “METHODS RELATED TO BREAKING T CELL EXHAUSTION” (CHILDREN'S MEDICAL CENTER CORPORATION, priority 2016, published 2019)
